From patent US10954287B2, “Ras binding peptides and methods of use” (Ra Pharmaceuticals, Inc., priority 2016, dated 2021) come the findings set out here.

What is called IC50 is the concentration that gives 50% inhibition.

*1 amine or outer side, *2 acyl side, *3 side chain or, on linkers, in order; H or OH if unused. Where a SMILES comes first, the peptide text is derived from it. Bridges are numbered along the chain shown (N, C = ends). [ ]: non-standard residue; d: D form. The star is where a group is joined. ξ: configuration not given here. 4‑(dimethylamino)benzoyl‑d4 = DMABZK2: N6-(4-(dimethylamino)benzoyl-2,3,5,6-d4)-L-lysine, [2H]c1c([2H])c(N(C)C)c([2H])c([2H])c1C(=O)*; DAPTZAC3 = (S)-3-(4-(3-acrylamidopropyl)-1H-1,2,3-triazol-1-yl)-2-aminopropanoic acid, C=CC(=O)NCCCc1cn(C[C@H](N[*:1])C(=O)[*:2])nn1; m‑xylylene = m-xylylene thioether bridge between Cys; Trp(7-aza) = N[C@@H](Cc1c[nH]c2ncccc12)C(=O)O; NMePhe(4-F) = CN[C@@H](Cc1ccc(F)cc1)C(=O)O; Phg = N[C@H](C(=O)O)c1ccccc1; Tle = CC(C)(C)[C@H](N)C(=O)O; ξPhg = NC(C(=O)O)c1ccccc1; NMeA = CN[C@@H](C)C(=O)O; Pra = C#CC[C@H](N)C(=O)O; Nva = CCC[C@H](N)C(=O)O; Ava = NCCCCC(=O)O; Sar = CNCC(=O)O

The subject of the assay is GMPPNP-loaded H-Ras or GTP-loaded K-Ras. The assay is described as follows: Fluorescence polarization competition assay with TAMRA-labeled probe R4007. Format: binding, human. The following applies: 120 nM Ras, 30 nM probe R4007, 60 minutes at room temperature; read-out: Probe displacement (nM IC50). Here is the method:
R4000 was evaluated for competition with a TAMRA labeled probe (R4007) based on peptide R4000. The assay was performed in 384-well black, non-binding plates (Greiner Bio-One, Monroe, N.C.). GMPPNP-loaded H-Ras or GTP-loaded K-Ras, diluted in FP assay buffer (20 mM Tris-HCl, pH 7.5, 50 mM NaCl, 5 mM MgCl2, 1 mM EDTA, 0.002% Triton-X-100) for a final concentration of 120 nM was incubated with 30 nM R4007 for 20 minutes at room temperature. R4000 was serially diluted, added to the assay and incubated for 60 minutes at room temperature. Fluorescence polarization was detected with a SpectraMax Paradigm plate reader (Molecular Devices, Sunnyvale, Calif.) using the Rhodamine FP detection cartridge (535 nm/595 nm). Data was analyzed using GraphPad Prism and Ki determined using One Site Ki Curve fitting model.
Peptides were evaluated for competition with R4007, a probe consisting of TAMRA-labeled R4000, using a fluorescence polarization (FP) competition assay. The assay was performed in 384-well black, non-binding plates (Greiner Bio-One, Monroe, N.C.). GMPPNP-loaded H-Ras or GTP- loaded K-Ras, diluted in FP assay buffer (20 mM Tris-HCl, pH 7.5, 50 mM NaCl, 5 mM MgCl2, 1 mM EDTA, 0.002% Triton-X-100) for a final concentration of 120 nM was incubated with 30 nM probe for 20 minutes at room temperature. Peptides were serially diluted, added to the assay and incubated for 60 minutes at room temperature. Fluorescence was detected with a SpectraMax Paradigm plate reader (Molecular Devices, Sunnyvale, Calif.) using the Rhodamine FP detection cartridge (535 nm/595 nm). Data was analyzed and Ki determined using a One Site Ki Curve fitting model. Percent inhibition for each data point was calculated relative to the maximal binding in test compound-free control wells (showing no probe displacement) and Ras-free control wells (showing no probe binding) and the half-maximal inhibitory concentration (IC50), based on probe displacement, was determined.
For orientation: In fluorescence polarisation assays a small probe gives low polarisation when free and higher when bound to something large.
As to `CCC[C@H](NC(C)=O)C(=O)N[C@H]1CSCc2cccc(c2)CSC[C@@H](C(N)=O)NC(=O)CN(C)C(=O)[C@H](Cc2ccc(F)cc2)N(C)C(=O)[C@H](Cc2ccc(O)cc2)NC(=O)[C@H](Cc2c[nH]c3ncccc23)NC(=O)[C@H](c2ccccc2)NC(=O)[C@H](CCCCN)N(C)C(=O)[C@H](Cc2c[nH]cn2)NC(=O)[C@H](C)NC(=O)[C@H](C(C)(C)C)NC(=O)[C@H](Cc2ccc(O)cc2)NC1=O` (relative stereo) [Compound R4125, ACE-NVA-CYS*-TYR-TBG-ALA-HIS-NMK-PHG-7AW-TYR-MFF-SAR-CYS*-NH2], the IC50 came to 110 nM. The result for `CCC[C@H](NC(C)=O)C(=O)N[C@H]1CSCc2cccc(c2)CSC[C@@H](C(=O)NCC(=O)NCC(=O)NCC(=O)N[C@@H](CS)C(=O)N[C@H](C(=O)N[C@H](C(=O)N[C@@H](CCSC)C(=O)O)[C@@H](C)CC)C(C)C)NC(=O)CN(C)C(=O)[C@H](C)N(C)C(=O)[C@H](Cc2ccc(O)cc2)NC(=O)[C@H](Cc2c[nH]c3ncccc23)NC(=O)[C@H](C)NC(=O)[C@H](C)N(C)C(=O)[C@H](Cc2c[nH]cn2)NC(=O)[C@H](CCCCN)NC(=O)[C@H](C(C)(C)C)NC(=O)[C@H](Cc2ccc(O)cc2)NC1=O` (relative stereo) [Compound R4143, ACE-NVA-CYS*-TYR-TBG-LYS-HIS-NMA-ALA-7AW-TYR-NMA-SAR-CYS*-GLY-GLY-GLY-CYS-VAL-ILE-MET] reads 1640 nM; that for `CCC[C@H](NC(C)=O)C(=O)N[C@H]1CSCc2cccc(c2)CSC[C@@H](C(N)=O)NC(=O)CN(C)C(=O)[C@H](Cc2ccc(F)cc2)N(C)C(=O)[C@H](Cc2ccc(O)cc2)NC(=O)[C@H](Cc2c[nH]c3ncccc23)NC(=O)[C@@H](c2ccccc2)NC(=O)[C@H](C)N(C)C(=O)[C@H](C)NC(=O)[C@H](CCCCN)NC(=O)[C@H](C(C)(C)C)NC(=O)[C@H](Cc2ccc(O)cc2)NC1=O` (relative stereo) [Compound R4153, ACE-NVA-CYS*-TYR-TBG-LYS-ALA-NMA-DPHG-7AW-TYR-MFF-SAR-CYS*-NH2], 36400 nM; that for “ACE-NVA-CYS*-TYR-TBG-DMABZK2-HIS-NMA-PHG-7AW-TYR-MFF-SAR-CYS*-NH2 (Ac-[Nva]CY[Tle]K(4‑(dimethylamino)benzoyl‑d4)H[NMeA][Phg][Trp(7-aza)]Y[NMePhe(4-F)][Sar]C-NH2; linker 2-13 via m‑xylylene) [Compound R4150, cyclized by a m-xylylene thioether bridge]”, 7640 nM. The result for “ACE-NVA-SER-TYR-TBG-ALA-DAPTZAC3-NMA-RPHG-7AW-TYR-MFF-SAR-SER-NH2 (Ac-[Nva]SY[Tle]A[DAPTZAC3][NMeA][ξPhg][Trp(7-aza)]Y[NMePhe(4-F)][Sar]S-NH2) [Compound R4148, linear]” reads 6000 nM; that for `CCC[C@H](NC(C)=O)C(=O)N[C@H]1CSCc2cccc(c2)CSC[C@@H](C(=O)N[C@H](CO)C(=O)N[C@@H](CCCCN)C(=O)NCC(=O)N[C@@H](CSSC(C)(C)C)C(=O)N[C@H](C(=O)N[C@H](C(=O)N[C@@H](CCSC)C(=O)O)[C@@H](C)CC)C(C)C)NC(=O)CN(C)C(=O)[C@H](Cc2ccc(F)cc2)N(C)C(=O)[C@H](Cc2ccc(O)cc2)NC(=O)[C@H](Cc2c[nH]c3ncccc23)NC(=O)[C@H](c2ccccc2)NC(=O)[C@H](C)N(C)C(=O)[C@H](Cc2c[nH]cn2)NC(=O)[C@H](CCCCN)NC(=O)[C@H](C(C)(C)C)NC(=O)[C@H](Cc2ccc(O)cc2)NC1=O` (relative stereo) [Compound R4109, ACE-NVA-CYS*-TYR-TBG-LYS-HIS-NMA-PHG-7AW-TYR-MFF-SAR-CYS*-DSER-LYS-GLY-TDSPA-VAL-ILE-MET], 14.2 nM; that for `CC(=O)N[C@@H](CO)C(=O)N[C@H]1CSCc2cccc(c2)CSC[C@@H](C(N)=O)NC(=O)CN(C)C(=O)[C@H](Cc2ccc(F)cc2)N(C)C(=O)[C@H](Cc2ccc(O)cc2)NC(=O)[C@H](Cc2c[nH]c3ncccc23)NC(=O)[C@H](c2ccccc2)NC(=O)[C@H](C)N(C)C(=O)[C@H](Cc2c[nH]cn2)NC(=O)[C@H](CCCCN)NC(=O)[C@H](C(C)(C)C)NC(=O)[C@H](Cc2ccc(O)cc2)NC1=O` (relative stereo) [Compound R4104, ACE-SER-CYS*-TYR-TBG-LYS-HIS-NMA-PHG-7AW-TYR-MFF-SAR-CYS*-NH2], 3.29 nM. The result for `C=CC(=O)NCc1cn(C[C@H](NC(=O)[C@H](C)NC(=O)[C@@H](NC(=O)[C@H](Cc2ccc(O)cc2)NC(=O)[C@H](CO)NC(=O)[C@H](CCC)NC(C)=O)C(C)(C)C)C(=O)N(C)[C@@H](C)C(=O)NC(C(=O)N[C@@H](Cc2c[nH]c3ncccc23)C(=O)N[C@@H](Cc2ccc(O)cc2)C(=O)N(C)[C@@H](Cc2ccc(F)cc2)C(=O)N(C)CC(=O)N[C@@H](CO)C(N)=O)c2ccccc2)nn1` (stereo partly drawn) [Compound R4005, ACE-NVA-SER-TYR-TBG-ALA-DAPTZAC1-NMA-RPHG-7AW-TYR-MFF-SAR-SER-NH2] reads 2070 nM.

In the case of `C#CC[C@@H]1NC(=O)CN(C)C(=O)[C@H](Cc2ccc(F)cc2)N(C)C(=O)[C@H](Cc2ccc(O)cc2)NC(=O)[C@H](Cc2c[nH]c3ncccc23)NC(=O)[C@H](c2ccccc2)NC(=O)[C@H](C)N(C)C(=O)[C@H](Cc2c[nH]cn2)NC(=O)[C@H](CCCCN)NC(=O)[C@H](C(C)(C)C)NC(=O)[C@H](Cc2ccc(O)cc2)NC(=O)CCCCNC1=O` [Compound R4128, APA*-TYR-TBG-LYS-HIS-NMA-PHG-7AW-TYR-MFF-SAR-PRG*] (cyclo([Ava]Y[Tle]KH[NMeA][Phg][Trp(7-aza)]Y[NMePhe(4-F)][Sar][Pra])), the IC50 came to 215 nM. Consider `CCC[C@H](NC(C)=O)C(=O)N[C@H]1CSCc2cccc(c2)CSC[C@@H](C(=O)O)NC(=O)CN(C)C(=O)[C@H](Cc2ccc(F)cc2)N(C)C(=O)[C@H](Cc2ccc(O)cc2)NC(=O)[C@H](Cc2c[nH]c3ncccc23)NC(=O)[C@H](c2ccccc2)NC(=O)[C@H](C)N(C)C(=O)[C@H](Cc2c[nH]cn2)NC(=O)[C@H](CCCCNC(CC(C)C)=C2C(=O)CC(C)(C)CC2=O)NC(=O)[C@H](C(C)(C)C)NC(=O)[C@H](Cc2ccc(O)cc2)NC1=O` (relative stereo) [Compound R4135, ACE-NVA-CYS*-TYR-TBG-LYS-(DDE)-HIS-NMA-PHG-7AW-TYR-MFF-SAR-CYS*], for which the IC50 worked out at 364 nM.

For `CCC[C@H](NC(C)=O)C(=O)N[C@H]1CSCc2cccc(c2)CSC[C@@H](C(N)=O)NC(=O)CN(C)C(=O)[C@H](Cc2ccc(F)cc2)N(C)C(=O)[C@H](Cc2ccc(O)cc2)NC(=O)[C@H](Cc2c[nH]c3ncccc23)NC(=O)[C@H](c2ccccc2)NC(=O)[C@H](C)N(C)C(=O)[C@H](CN)NC(=O)[C@H](C)NC(=O)[C@H](C(C)(C)C)NC(=O)[C@H](Cc2ccc(O)cc2)NC1=O` (relative stereo) [Compound R4141, ACE-NVA-CYS*-TYR-TBG-ALA-DAP-NMA-PHG-7AW-TYR-MFF-SAR-CYS*-NH2], the IC50 was found to be 695 nM.

Turning to `CCC[C@H](NC(C)=O)C(=O)N[C@H]1CSCc2cccc(c2)CSC[C@@H](C(=O)N[C@H](CO)C(=O)N[C@@H](CCCCN)C(=O)NCC(=O)N[C@@H](CSSC(C)(C)C)C(=O)N[C@H](C(=O)N[C@H](C(=O)N[C@@H](CC(C)C)C(=O)O)C(C)C)C(C)C)NC(=O)CN(C)C(=O)[C@H](Cc2ccc(F)cc2)N(C)C(=O)[C@H](Cc2ccc(O)cc2)NC(=O)[C@H](Cc2c[nH]c3ncccc23)NC(=O)[C@H](c2ccccc2)NC(=O)[C@H](C)N(C)C(=O)[C@H](Cc2c[nH]cn2)NC(=O)[C@H](CCCCN)NC(=O)[C@H](C(C)(C)C)NC(=O)[C@H](Cc2ccc(O)cc2)NC1=O` (relative stereo) [Compound R4110, ACE-NVA-CYS*-TYR-TBG-LYS-HIS-NMA-PHG-7AW-TYR-MFF-SAR-CYS*-DSER-LYS-GLY-TDSPA-VAL-VAL-LEU], the IC50 amounted to 16.4 nM.
